Experimental data as given in patent US20060217394A1, “Treatment of anhedonia” (priority 2005, published 2006).

Key:
[1] = system: patients receiving SSRI or SNRI treatment for major depressive disorder; test: Retrospective review of patients receiving SSRI or SNRI treatment for major depressive disorder: late-appearing anhedonic symptoms; format: in vivo; details: individual patient
Source text: Although in the majority of so afflicted patients the diagnosis will be apparent during this interval, it should be understood that iatrogenic anhedonia may appear earlier or later during any course of treatment with medications that increase serotonin transmission efficiency with or without similar increases in the efficiency and availability of norepinephrine. The rather substantial number of patients suffering from the condition over diverse population samples may be postulated to be due to a genetic predisposition for the condition.
Patients in whom SSRIs produced excellent remission of major depressive disorder for the period shown in the 5th column
The result of decreased dopaminergic efficiency and/or availability may be dysphoric interference with the ability to experience the normal range of positive affect over the range from mild interest to pleasant excitement, and from ordinary contentment to great joy. Such decreased dopaminergic transmission efficiency may be caused by agents that block the serotonin transporter alone, and/or those that block both the serotonin transporter and the norepinephrine transporter, and/or those that increase the synthesis and release of both norepinephrine and serotonin and any mechanism whereby the efficiency of serotonergic transmission is enhanced.

[2] = system: patients afflicted with anhedonia; test: Treatment of iatrogenic anhedonia in patients with agents enhancing dopaminergic availability and/or efficiency; format: in vivo; details: about 2.5 mg prn, no more than once daily, on as few as two to five days per week
[3] = period for which the SSRI produced excellent remission of major depressive disorder

Structure (SMILES) | SSRI duration before new symptoms [1, 3] | improvement of anhedonia [2] | SSRI duration before new symptoms ([1]; period of excellent remission, some patients 10 years intermittent (stopped Rx each time anomie experienced))
CN(C)CCCC1(c2ccc(F)cc2)OCc2cc(C#N)ccc21 (stereo not drawn) [citalopram] | 6 months | – | –
COC(=O)[C@H](c1ccccc1)[C@H]1CCCCN1 [dexmethylphenidate] | – | Satisfactory and ongoing improvement | –
CNCCC(Oc1ccc(C(F)(F)F)cc1)c1ccccc1 (stereo not drawn) [fluoxetine] | 2 years | – | 1 year
Fc1ccc([C@@H]2CCNC[C@H]2COc2ccc3c(c2)OCO3)cc1 [paroxetine] | 10 years | – | –
CN[C@H]1CC[C@@H](c2ccc(Cl)c(Cl)c2)c2ccccc21 [sertraline] | 2 years | – | –
